Data from patent US8415376B2, “Inhibitors of PI3 kinase” (Amgen Inc., priority 2008, dated 2013).

Columns and labels:
[1] = tested on: phosphorylation of Akt at Serine 473; assay: pAkt AlphaScreen (U87 cell); type: cell-based; settings: Homo sapiens, U-87 MG; U87 MG cells, pAkt Ser473; average
Description: pAkt Alphascreen (U87 Cell)
The pAkt AlphaScreen® assay (PerkinElmer, Waltham, Mass.) determines whether there is phosphorylation of Akt at Serine 473 by recruitment of a phosphospecific antibody. This assay was performed using U87 MG cells. The U87 growth media consists of MEM (Gibco, Carlsbad, Calif.) supplemented with 10% FBS (Gibco,), 1× Non-Essential Amino Acids (Gibco,) and 1× Penicillin/Streptomycin/Glutamine (Gibco). The cells were maintained weekly using 0.05% Trypsin (Gibco) and replated in 150 mm TC-Treated Culture Dishes (Corning, Corning, N.Y.).
The first day of the assay, the adherent cells were trypsinized, media was added to the loose cells and cells were mixed to a homogenous mixture. 0.5 ml of the homogenous mixture was counted on the Beckman Coulter® Vi-CELL™ XR (Fullerton, Calif.). 50 frames of cells were counted and the number of viable cells was determined. The cells were then diluted to 0.25 million cells per ml, and centrifuged at 200 rcf for 5 minutes. The media was removed and the cells were reconstituted in fresh media for plating. The cells were plated at 20 μl per well on the PerkinElmer® FlexDrop PLUS in Low Volume 384 Well White Tissue Culture Plates (Corning) with a final cell density of 5K cells per well. The plates were incubated overnight at 37° Celsius, 5% CO2.
On the second day, the compound plates were prepared, the cells were treated with compound and the pAkt reaction mix was added to the cell lysate. 384 well compound plates were prepared containing 1 μl of compound per well starting at 5 mM and diluted 1:2 across the row, resulting in a 22 well serial dilution. 39 μl of growth media was added to the compound plate in rows 1-22 using the PerkinElmer® FlexDrop PLUS resulting in a DMSO concentration of 2.5%. The cell plates and diluted compound plates were put onto the VELOCITY11™ VPREP™ 384 ST where the compound plate was mixed and 5 μl of serially diluted compound or controls was added to the cell plate. The final concentration of the compounds was 25 μM serially diluted to 11.9 pM in 0.5% DMSO. The cell plates were then incubated with compound for two hours at 37° Celsius, 5% CO2. After two hours, the media in the cell plates was aspirated using the BioTek® ELx405HT plate washer (Winooski, Vt.) removing the majority of media and compound without disturbing the adherent U87 cells. The following assay reagents are components of the SureFire® Akt (Ser 473) Phosphorylation 50K Point Kit (TGR BioSciences, Adelaide, Austalia) and an IgG Detection Kit (PerkinElmer, Waltham, Mass.). 5 μl of 1× Lysis Buffer was added to each well using the PerkinElmer® FlexDrop PLUS. The plates were then incubated at room temperature on a shaker for ten minutes. The AlphaScreen® reaction was prepared under low light conditions (subdued or green light) including p-Akt (Ser 473) Reaction Buffer, Dilution Buffer, Activation Buffer, Acceptor Beads and Donor Beads at a ratio of 40:20:10:1:1 respectively. The AlphaScreen® reaction was added to the cell lysate at 6 μl per well using the PerkinElmer® FlexDrop PLUS. The plates were placed in a humid environment to reduce edge effects and incubated overnight at room temperature with restricted air flow in the dark.
On the final day of the experiment, the plates were read on the PerkinElmer® EnVision™ 2103 Multilable Reader using the standard AlphaScreen® readout. The POC is calculated and the data is analyzed to report the IC50 IP for pAkt at Serine 473.
Activity data for the compounds tested in the PI3K cell based Akt assay is provided in Table 2 under the column heading U87

[2] = biological target: T1, mTOR (Homo sapiens, UniProt P42345); assay: In vitro mTOR assay (Lanthascreen); type: biochemical; settings: average if run more than once
T1 construct: purchased Invitrogen (Carlsbad, Calif.)
Outline: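 mTOR activity measured by TR-FRET as Thr46 phosphorylation of GFP-4E-BP1, detected with Tb-labelled anti-phospho-4E-BP1 [T46] antibody after EDTA stop. Final 50 ng/mL mTOR, 400 nM GFP-4E-BP1, 7 μM ATP in HEPES pH 7.5 with 10 mM MnCl2; 1 h, room temperature. 10-point 1:3 compound series.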

[3] = biological target: T2, PI3Kα (Homo sapiens, UniProt P42336); assay: In vitro PI3K AlphaScreen assay; type: biochemical; settings: average if run more than once
T2 construct: Full length p110 subunits of PI3K α, β and δ, N-terminally labeled with polyHis tag; polyHis (N); made in house; host or cells: Sf9 insect cells (baculovirus)
T2 sequence (P42336 whole entry): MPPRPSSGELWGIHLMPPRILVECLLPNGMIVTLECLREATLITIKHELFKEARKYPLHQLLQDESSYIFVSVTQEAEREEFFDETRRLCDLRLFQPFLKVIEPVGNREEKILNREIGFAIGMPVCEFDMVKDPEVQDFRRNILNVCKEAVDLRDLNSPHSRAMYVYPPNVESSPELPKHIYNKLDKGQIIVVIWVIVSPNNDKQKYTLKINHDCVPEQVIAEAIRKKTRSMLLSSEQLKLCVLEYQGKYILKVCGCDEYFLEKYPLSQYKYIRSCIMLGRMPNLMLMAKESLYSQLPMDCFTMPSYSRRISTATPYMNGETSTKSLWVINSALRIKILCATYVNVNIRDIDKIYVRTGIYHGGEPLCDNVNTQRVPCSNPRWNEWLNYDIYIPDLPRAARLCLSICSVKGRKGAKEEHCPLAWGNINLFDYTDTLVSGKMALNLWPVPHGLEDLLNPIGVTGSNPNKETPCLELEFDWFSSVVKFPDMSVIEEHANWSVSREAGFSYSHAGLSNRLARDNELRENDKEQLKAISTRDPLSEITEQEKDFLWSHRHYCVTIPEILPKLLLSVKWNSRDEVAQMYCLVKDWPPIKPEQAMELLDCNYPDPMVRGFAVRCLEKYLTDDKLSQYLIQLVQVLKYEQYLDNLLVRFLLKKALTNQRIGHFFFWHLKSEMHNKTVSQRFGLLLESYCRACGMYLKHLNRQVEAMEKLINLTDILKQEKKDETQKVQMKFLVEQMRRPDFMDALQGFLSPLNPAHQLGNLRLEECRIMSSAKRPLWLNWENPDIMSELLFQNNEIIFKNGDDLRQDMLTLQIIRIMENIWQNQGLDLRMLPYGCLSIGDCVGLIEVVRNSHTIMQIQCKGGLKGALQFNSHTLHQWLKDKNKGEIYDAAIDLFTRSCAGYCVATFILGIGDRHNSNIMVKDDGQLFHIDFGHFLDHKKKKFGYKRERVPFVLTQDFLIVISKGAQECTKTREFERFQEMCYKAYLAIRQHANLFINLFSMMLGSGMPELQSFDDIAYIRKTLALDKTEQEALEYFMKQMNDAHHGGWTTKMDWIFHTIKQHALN
T2 sequence (P27986 whole entry partner): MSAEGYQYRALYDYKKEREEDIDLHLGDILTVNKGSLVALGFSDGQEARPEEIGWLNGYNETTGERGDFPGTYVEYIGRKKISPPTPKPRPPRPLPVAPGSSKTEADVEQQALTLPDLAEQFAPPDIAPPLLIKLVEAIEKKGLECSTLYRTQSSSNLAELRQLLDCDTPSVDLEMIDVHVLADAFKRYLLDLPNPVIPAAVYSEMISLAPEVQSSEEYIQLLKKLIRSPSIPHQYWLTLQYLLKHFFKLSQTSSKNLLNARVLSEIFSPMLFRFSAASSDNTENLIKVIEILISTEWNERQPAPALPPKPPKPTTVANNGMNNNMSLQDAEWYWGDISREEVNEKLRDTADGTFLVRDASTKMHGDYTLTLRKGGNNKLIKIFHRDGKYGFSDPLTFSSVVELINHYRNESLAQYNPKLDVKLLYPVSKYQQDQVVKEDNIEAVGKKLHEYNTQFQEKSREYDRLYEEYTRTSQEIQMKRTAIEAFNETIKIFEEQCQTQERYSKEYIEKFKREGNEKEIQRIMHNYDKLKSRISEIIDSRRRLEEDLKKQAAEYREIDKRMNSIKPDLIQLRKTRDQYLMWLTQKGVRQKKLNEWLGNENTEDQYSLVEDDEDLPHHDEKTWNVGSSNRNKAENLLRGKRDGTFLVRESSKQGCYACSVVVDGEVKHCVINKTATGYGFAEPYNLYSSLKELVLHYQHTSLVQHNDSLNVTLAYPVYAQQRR

T1 sequence (P42345 1360-2549 limits assumed): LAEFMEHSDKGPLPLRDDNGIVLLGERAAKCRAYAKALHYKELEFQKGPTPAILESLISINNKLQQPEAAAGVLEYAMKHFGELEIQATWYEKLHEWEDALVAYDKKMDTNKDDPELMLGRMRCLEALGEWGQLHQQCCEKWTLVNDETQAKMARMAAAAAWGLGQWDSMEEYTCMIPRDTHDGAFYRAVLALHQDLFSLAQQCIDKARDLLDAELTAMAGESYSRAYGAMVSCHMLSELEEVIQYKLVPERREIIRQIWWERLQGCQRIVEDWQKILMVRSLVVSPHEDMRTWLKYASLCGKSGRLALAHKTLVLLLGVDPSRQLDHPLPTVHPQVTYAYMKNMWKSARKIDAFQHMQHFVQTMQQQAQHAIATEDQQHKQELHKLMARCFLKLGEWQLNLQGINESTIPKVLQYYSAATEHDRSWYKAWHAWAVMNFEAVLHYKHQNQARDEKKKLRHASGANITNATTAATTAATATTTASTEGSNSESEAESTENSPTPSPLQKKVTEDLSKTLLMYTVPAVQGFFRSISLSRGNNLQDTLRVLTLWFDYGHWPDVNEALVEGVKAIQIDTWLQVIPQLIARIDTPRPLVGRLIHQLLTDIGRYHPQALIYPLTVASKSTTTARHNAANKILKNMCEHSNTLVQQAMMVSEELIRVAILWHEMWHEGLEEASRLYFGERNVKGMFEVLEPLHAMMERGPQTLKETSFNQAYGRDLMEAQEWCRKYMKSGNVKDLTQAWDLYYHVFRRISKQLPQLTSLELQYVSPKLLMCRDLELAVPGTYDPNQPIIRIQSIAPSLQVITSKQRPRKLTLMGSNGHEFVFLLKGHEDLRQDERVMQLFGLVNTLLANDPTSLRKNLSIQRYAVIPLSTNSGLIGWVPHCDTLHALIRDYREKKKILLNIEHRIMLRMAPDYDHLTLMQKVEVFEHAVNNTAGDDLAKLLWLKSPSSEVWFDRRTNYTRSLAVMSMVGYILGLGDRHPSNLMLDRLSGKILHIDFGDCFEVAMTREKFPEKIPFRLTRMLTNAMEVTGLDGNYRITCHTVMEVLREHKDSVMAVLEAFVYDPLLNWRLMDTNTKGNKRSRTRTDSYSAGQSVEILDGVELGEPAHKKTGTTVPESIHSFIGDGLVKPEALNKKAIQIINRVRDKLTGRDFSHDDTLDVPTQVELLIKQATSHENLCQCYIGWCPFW

| SMILES | IC50 [1] [µM] | IC50 [2] [µM] | Ki [3] [µM] |
| --- | --- | --- | --- |
| CS(=O)(=O)Nc1cc(-c2ccc3nccc(-c4ccncc4)c3c2)cnc1Cl [Example 118, N-(2-Chloro-5-(4-(pyridin-4-yl)quinolin-6-yl)pyridin-3-yl)methanesulfonamide] | 0.0127 | 0.0012 | 0.0011 |
| COc1ncc(-c2ccc3nccc(-c4ccncc4)c3c2)cc1NS(C)(=O)=O [Example 120, N-(2-Methoxy-5-(4-(pyridin-4-yl)quinolin-6-yl)pyridin-3-yl)methanesulfonamide] | 0.0147 | 0.0048 | 0.0035 |
| COCC1CCCN1c1ccnc2ccc(-c3cnc(Cl)c(NS(C)(=O)=O)c3)cc12 (stereo not drawn) [Example 81, N-(2-chloro-5-(4-(2-(methoxymethyl)-1-pyrrolidinyl)-6-quinolinyl)-3-pyridinyl)methanesulfonamide] | 2.71 | 2.74 | 0.368 |
| CS(=O)(=O)Nc1cc(-c2ccc3nccc(C4=CCOCC4)c3c2)cnc1Cl [Example 107, N-(2-chloro-5-(4-(3,6-dihydro-2H-pyran-4-yl)-6-quinolinyl)-3-pyridinyl)methanesulfonamide] | 0.0198 | 0.004 | 0.0017 |
| C[C@H]1CN(c2ccnc3ccc(-c4cnc(Cl)c(NS(C)(=O)=O)c4)cc23)C[C@H](C)O1 [Example 109, N-(2-chloro-5-(4-((2S,6S)-2,6-dimethyl-4-morpholinyl)-6-quinolinyl)-3-pyridinyl)methanesulfonamide] | 0.0214 | 0.0137 | 0.0032 |
| CC1(C)CN(c2ccnc3ccc(-c4cnc(Cl)c(NS(C)(=O)=O)c4)cc23)CCO1 [Example 90, N-(2-chloro-5-(4-(2,2-dimethyl-4-morpholinyl)-6-quinolinyl)-3-pyridinyl)methanesulfonamide] | 0.0484 | 0.0044 | 0.0107 |
| CS(=O)(=O)Nc1cc(-c2ccc3nccc(NC4CCNCC4)c3c2)cnc1Cl [Example 88, N-(2-chloro-5-(4-(4-piperidinylamino)-6-quinolinyl)-3-pyridinyl)methanesulfonamide] | 6.84 | 1.77 | 0.161 |
| CS(=O)(=O)Nc1cc(-c2ccc3nccc(N4CCN(Cc5ccc6c(c5)OCO6)CC4)c3c2)cnc1Cl [Example 84, N-(5-(4-(4-(1,3-benzodioxol-5-ylmethyl)-1-piperazinyl)-6-quinolinyl)-2-chloro-3-pyridinyl)methanesulfonamide] | 0.289 | 0.0487 | 0.0225 |
| CS(=O)(=O)Nc1cc(-c2ccc3nccc(-c4cccnc4)c3c2)cnc1Cl [Example 116, N-(2-Chloro-5-(4-(pyridin-3-yl)quinolin-6-yl)pyridin-3-yl)methanesulfonamide] | 0.019 | 0.0029 | 0.0013 |
| COc1ccc(-n2c(=O)cnc3ccc(-c4cnc(Cl)c(NS(=O)(=O)N(C)C)c4)cc32)cn1 [Example 132, N-(2-chloro-5-(4-(6-methoxypyridin-3-yl)-3-oxo-3,4-dihydroquinoxalin-6-yl)pyridin-3-yl)dimethylaminosulfonamide] | 0.0408 | 0.0023 | 0.0022 |
| O=S(=O)(Nc1cc(-c2ccc3c(c2)OCCO3)cnc1Cl)c1ccc(F)cc1 [Example 128, N-(2-Chloro-5-(2,3-dihydrobenzo[b][1,4]dioxin-6-yl)pyridin-3-yl)-4-fluorobenzenesulfonamide] | 20.4 | 0.0527 | 0.0333 |
| O=S(=O)(Nc1cc(-c2ccc3nccc(N4CCOCC4)c3c2)cnc1Cl)N1CCOCC1 [Example 124, N-(2-chloro-5-(4-morpholinoquinolin-6-yl)pyridin-3-yl)morpholine-4-sulfonamide] | 0.0399 | 0.0143 | 0.0046 |
| O=S1(=O)CCC(COc2ccnc3ccc(-c4cnc(Cl)c(NS(=O)(=O)c5ccc(F)cc5)c4)cc23)CC1 [Example 113, N-(2-Chloro-5-(4-((tetrahydro-2H-thiopyran-1,1-dioxide-4-yl)methoxy)quinolin-6-yl)pyridin-3-3-yl)-4-fluorobenzenesulfonamide] | 0.0444 | 0.0146 | 0.0016 |
